Measurements taken from US20240217947A1, “Morpholinylquinazoline Compound, Pharmaceutical compositions thereof and Use Thereof” (SHANGHAI YINGLI PHARMACEUTICAL CO., LTD, priority 2022, published 2024).
pIC50: −log10 of the molar value.

Key:
Assay type in all cases: biochemical
PI3Kβ = PI3Kβ (Homo sapiens, UniProt P42338); experiment: PI3Kβ enzyme activity inhibition IC50 evaluation assay (ADP-Glo Kinase Assay); conditions: ATP 25 μM, PIP2 50 μg/mL, 1 hour room temperature, read-out: PI3K-β IC50
Sequence of PI3Kβ (P42338 whole entry, species assumed): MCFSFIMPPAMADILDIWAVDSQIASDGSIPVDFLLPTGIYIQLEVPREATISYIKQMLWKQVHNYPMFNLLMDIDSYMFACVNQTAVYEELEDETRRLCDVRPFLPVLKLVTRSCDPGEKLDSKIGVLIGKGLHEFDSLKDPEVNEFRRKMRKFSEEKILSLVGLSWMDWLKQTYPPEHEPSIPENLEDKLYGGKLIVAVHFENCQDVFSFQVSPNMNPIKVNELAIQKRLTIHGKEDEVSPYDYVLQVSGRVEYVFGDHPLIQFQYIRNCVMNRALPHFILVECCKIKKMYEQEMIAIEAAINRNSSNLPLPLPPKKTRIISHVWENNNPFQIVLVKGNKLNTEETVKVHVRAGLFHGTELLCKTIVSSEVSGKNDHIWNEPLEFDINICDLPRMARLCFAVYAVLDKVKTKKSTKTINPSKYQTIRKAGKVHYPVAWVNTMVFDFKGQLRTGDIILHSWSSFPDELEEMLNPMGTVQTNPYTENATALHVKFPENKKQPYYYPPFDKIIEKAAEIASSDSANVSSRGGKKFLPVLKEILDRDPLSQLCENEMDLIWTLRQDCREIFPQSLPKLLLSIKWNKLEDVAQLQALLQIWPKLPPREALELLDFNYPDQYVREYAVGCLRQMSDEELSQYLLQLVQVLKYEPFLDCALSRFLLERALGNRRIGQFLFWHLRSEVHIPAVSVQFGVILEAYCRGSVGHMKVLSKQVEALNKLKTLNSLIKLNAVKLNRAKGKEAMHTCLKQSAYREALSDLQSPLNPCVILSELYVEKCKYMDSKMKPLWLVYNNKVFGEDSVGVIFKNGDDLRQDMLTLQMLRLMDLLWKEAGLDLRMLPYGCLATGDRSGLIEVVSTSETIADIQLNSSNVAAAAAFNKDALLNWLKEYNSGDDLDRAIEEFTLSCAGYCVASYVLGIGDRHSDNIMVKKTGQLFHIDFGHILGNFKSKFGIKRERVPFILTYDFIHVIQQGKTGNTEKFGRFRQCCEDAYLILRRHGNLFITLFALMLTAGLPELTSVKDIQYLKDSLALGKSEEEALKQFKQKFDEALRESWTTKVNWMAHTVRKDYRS
Sequence of PI3Kβ (P27986 whole entry partner, species assumed): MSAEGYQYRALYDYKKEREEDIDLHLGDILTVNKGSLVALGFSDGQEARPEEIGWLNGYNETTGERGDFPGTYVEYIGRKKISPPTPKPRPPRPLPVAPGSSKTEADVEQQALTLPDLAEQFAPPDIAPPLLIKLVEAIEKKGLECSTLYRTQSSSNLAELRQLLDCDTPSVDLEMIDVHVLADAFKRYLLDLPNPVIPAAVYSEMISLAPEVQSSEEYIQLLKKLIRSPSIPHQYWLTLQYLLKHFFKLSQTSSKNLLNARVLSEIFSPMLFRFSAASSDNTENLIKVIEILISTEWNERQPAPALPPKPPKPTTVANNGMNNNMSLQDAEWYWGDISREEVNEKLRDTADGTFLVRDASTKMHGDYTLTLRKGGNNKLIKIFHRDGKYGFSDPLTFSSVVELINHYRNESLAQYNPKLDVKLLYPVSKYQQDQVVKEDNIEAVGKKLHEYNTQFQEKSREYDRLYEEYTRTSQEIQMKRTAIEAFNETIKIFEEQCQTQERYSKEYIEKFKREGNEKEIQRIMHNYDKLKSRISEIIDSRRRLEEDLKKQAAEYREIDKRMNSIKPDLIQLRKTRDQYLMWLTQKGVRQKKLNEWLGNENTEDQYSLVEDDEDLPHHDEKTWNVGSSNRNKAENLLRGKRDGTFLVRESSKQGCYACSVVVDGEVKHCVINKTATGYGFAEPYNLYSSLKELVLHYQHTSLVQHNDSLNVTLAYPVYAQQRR
Procedure: (§1) Effec Example 1 IC50 evaluation assay for PI3Kα, PI3Kδ, PI3Kβ and PI3Kγ enzyme activity inhibition
(§2) The experiment was performed using the ADP-Glo Kinase Assay kit, following the instructions. The following buffer solutions were prepared: 50 mM HEPES, pH 7.5, 3 mM MgCl2, 1 mM EGTA, 100 mM NaCl, 0.03% CHAPS, 2 mM DTT. The test compound samples were dissolved in DMSO and added to the screening system at a certain starting concentration such as 10 μM, 3-fold dilution, while setting up both DMSO control and no kinase control. The optimal concentrations of PI3Kα, PI3Kδ, PI3Kβ and PI3Kγ enzymes, substrate (PIP2) and ATP were prepared in buffer. The enzyme reaction system included: buffer, ATP 25 μM, kinase substrate (PIP2, 50 μg/mL), kinases [PI3Kα (0.15 μg/mL), PI3Kδ (1.2 μg/mL), PI3Kβ (0.3 μg/mL) and PI3Kγ (2.5 μg/mL)], etc. The reaction system was reacted at room temperature for 1 hour. The reaction was terminated by adding a termination reagent (ADP-Glo reagent, 5 μL), and the ADP content in the system was detected using a detection reagent (Kinase Detection Reagent, 10 μL). Signal data were collected using the Envision instrument. Calculate the percentage of (%) inhibition according to the following formula: % inhibition=(DMSO control signal value−sample signal value)/(DMSO control signal value−no-kinase control signal value). The IC50 value was obtained by fitting the curve using the formula Y=Bottom+(Top-Bottom)/(1+(IC50/X)^HillSlope).

HDAC10 = molecular target: T1, HDAC10 (Homo sapiens, UniProt Q969S8); experiment: HDAC10 enzyme activity inhibition IC50 evaluation experiment; conditions: HDAC10 10 nM, acetylated peptide 4 μM, 240 min, fluorescence
T1 sequence (Q969S8 1-669): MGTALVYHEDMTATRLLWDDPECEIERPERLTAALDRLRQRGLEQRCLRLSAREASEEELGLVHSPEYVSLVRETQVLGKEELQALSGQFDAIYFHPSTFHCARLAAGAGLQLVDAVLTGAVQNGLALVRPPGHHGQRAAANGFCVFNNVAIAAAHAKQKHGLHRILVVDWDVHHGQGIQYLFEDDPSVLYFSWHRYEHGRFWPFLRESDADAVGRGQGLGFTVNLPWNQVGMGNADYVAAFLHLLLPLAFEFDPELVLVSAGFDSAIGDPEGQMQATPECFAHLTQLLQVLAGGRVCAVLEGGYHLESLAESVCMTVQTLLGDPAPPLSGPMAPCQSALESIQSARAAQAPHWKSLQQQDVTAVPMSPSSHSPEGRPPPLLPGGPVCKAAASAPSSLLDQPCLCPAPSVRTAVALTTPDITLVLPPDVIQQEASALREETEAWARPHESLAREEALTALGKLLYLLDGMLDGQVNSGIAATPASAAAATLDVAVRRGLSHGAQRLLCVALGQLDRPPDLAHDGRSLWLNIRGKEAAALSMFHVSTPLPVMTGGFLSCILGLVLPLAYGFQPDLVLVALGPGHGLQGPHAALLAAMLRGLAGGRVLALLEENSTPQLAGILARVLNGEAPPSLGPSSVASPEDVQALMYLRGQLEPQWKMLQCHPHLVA
Procedure: Effect Example 3 HDAC8, HDAC10 enzyme activity inhibition IC50 evaluation experiment
Prepare buffer solution (HDAC8: 50 mM Tris 8.0, 2.7 mM KCl, 137 mM NaCl, 1 mM MgCl2, 1 mg/mL BSA; HDAC10: 50 mM Tris 7.5, 0.01% Tween-20, 50 mM NaCl, 0.05 mg/mL BSA) according to the kit instructions, prepared Enzyme solution, substrate solution (acetylated peptide) by using buffer. The test compound samples were dissolved in DMSO and was added to the screening system at a certain starting concentration such as 10 μM, 3-fold dilution, while setting up the DMSO control and the no-enzyme control. The enzyme reaction system includes: buffer, enzyme [final concentration: HDAC8=10 nM, HDAC10=10 nM], substrate (acetylated peptide) [final concentration: Peptide(HDAC8)=20 μM, Peptide(HDAC10)=4 μM], etc. The enzymes and compounds were reacted at room temperature for 15 minutes. After adding the substrate peptide the reaction system was reacted at room temperature for 240 min. Trypsin solution was added [final concentration: Trypsin=50p M] and incubation continued for 120 min. The fluorescence signal data (excitation wavelength 355 nM/emission wavelength 460 nm) was read with Envision instrument. Calculate the inhibition rate at this concentration based on the relative fluorescence units (RFU). The IC50 value was obtained by fitting a curve using the formula Y=Bottom+(Top-Bottom)/(1+(IC50/X)^HillSlope).

PI3Kγ = PI3Kγ (Homo sapiens, UniProt P48736); experiment: PI3Kγ enzyme activity inhibition IC50 evaluation assay (ADP-Glo Kinase Assay); conditions: ATP 25 μM, PIP2 50 μg/mL, 1 hour room temperature, read-out: PI3K-γ IC50
Sequence of PI3Kγ (P48736 whole entry, species assumed): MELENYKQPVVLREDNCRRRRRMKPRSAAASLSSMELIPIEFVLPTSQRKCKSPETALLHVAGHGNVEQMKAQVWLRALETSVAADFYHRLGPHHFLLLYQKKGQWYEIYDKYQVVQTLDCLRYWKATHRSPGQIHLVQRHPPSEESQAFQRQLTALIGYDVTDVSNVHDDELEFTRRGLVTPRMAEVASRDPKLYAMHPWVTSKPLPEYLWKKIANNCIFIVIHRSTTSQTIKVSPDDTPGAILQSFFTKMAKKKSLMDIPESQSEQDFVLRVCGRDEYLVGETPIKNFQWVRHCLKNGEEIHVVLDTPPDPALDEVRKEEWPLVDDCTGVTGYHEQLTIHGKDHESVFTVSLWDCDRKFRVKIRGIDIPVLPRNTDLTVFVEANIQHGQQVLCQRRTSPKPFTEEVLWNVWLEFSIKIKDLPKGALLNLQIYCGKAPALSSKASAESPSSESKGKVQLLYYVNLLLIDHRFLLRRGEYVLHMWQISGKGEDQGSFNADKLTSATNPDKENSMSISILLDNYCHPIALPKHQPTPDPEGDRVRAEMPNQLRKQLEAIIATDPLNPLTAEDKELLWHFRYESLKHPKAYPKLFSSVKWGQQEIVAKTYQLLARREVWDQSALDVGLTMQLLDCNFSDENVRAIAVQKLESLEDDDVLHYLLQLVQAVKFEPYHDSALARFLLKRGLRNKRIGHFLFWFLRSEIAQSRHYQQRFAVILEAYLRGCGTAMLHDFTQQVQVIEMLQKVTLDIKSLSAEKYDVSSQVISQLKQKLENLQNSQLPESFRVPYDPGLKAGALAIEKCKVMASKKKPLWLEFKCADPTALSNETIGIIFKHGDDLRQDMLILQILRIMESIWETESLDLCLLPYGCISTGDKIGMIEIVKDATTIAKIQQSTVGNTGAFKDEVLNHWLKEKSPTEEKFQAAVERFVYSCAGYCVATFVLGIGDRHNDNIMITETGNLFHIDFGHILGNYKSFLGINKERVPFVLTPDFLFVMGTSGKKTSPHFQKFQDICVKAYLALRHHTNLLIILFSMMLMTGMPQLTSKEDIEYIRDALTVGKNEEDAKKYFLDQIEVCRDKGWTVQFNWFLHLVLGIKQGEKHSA
Procedure: as §1, §2

Row | pIC50 (PI3Kβ) | pIC50 (HDAC10) | pIC50 (PI3Kγ) | Structure (SMILES)
1 | 6.00 to 7.00 | 6.00 to 7.00 | 5.00 to 6.00 | COc1ncc(-c2nc(N3CCOCC3)nc3c(CN4CCN(c5ncc(C(=O)NO)cn5)CC4)cc(F)cc23)cc1NS(C)(=O)=O [Compound 7]
2 | – | 6.00 to 7.00 | – | COc1ncc(-c2nc(N3CCOCC3)nc3c(OCCCCCCC(=O)NO)cc(F)cc23)cc1NS(C)(=O)=O [Compound 9]
3 | 5.00 to 6.00 | 6.00 to 7.00 | 5.00 to 6.00 | COc1ncc(-c2nc(N3CCOCC3)nc3c(OC4CCN(c5ncc(C(=O)NO)cc5F)CC4)cc(F)cc23)cc1NS(C)(=O)=O [Compound 30]
4 | – | 7.00 to 8.00 | – | COc1ncc(-c2nc(N3CCOCC3)nc3c(OC4CCN(c5ncc(C(=O)NO)cn5)CC4)cc(F)cc23)cc1NS(C)(=O)=O [Compound 39]
